Consider 7 compounds from patent publication US20010044463A1, “Methods for controlling gram negative bacteria in mammals” (priority 1997, published 2001).

One test relates to H. pylori ATCC 43504. Briefly: Minimum Inhibitory Concentration (MIC) blood agar plate growth inhibition. The class given is cell-based, Helicobacter pylori. How it is done:
Subsequent dilutions were made in ethanol immediately prior to use. […] Subsequent dilutions were made in BHI medium (Brain heart infusion broth, Difco #0037-07-0) immediately prior to use.
(§1) Blood agar base (BAB) was prepared containing 1.5% agar and autoclaved. 20 ml samples of autoclaved BAB were poured into 50 mL tubes and placed in a 56° C. water bath.
The mixed media preparation was poured into a petri dished and allowed to solidify.
(§2) Prior to inoculation of petri plates, bacteria or cultures were examined for morphology under a phase microscope to confirm motility and physical characteristics, e.g., spiral shaped. The organisms were washed off the plate into PBS (Phosphate buffered saline) (80.0 g NaCl, 2.0 g KCl, 2.4 g KH2PO4 11.5 g Na2HPO4 or 24.4 g Na2HPO4/2H2O per 1 liter deionized water, pH 7.2, sterilized by autoclaving) and diluted into BHI at a concentration of 10^8/ml (O.D. of 0.3 units diluted 1:30). Ten microliters of solution containing 10^6 organisms were spread onto a petri plate and grown under microaerophilic conditions for 3 days unless specified. Control organisms were grown under microaerophilic conditions.
(§3) Inhibition of growth was determined by the amount of colonies present within the petri plate. The following factors were used for growth inhibition: ±=0-20 colonies, +=20-50 colonies, ++=50-200 colonies and +++=200+ colonies.

Test [1] relates to H. pylori (urease positive) ATCC Number 51652. The description is as above. The format is cell-based, Helicobacter pylori. The following applies: Table XVII, Blood agar base + 3% sheep blood. How it is done: (§4) Monensin (Sigma Cat. No. M-5273) was dissolved in 100% absolute ethanol (AAPER Alcohol and Chemical Co.) at a concentration of 20 mg/ml. Subsequent dilutions were made in ethanol immediately prior to use. Nigericin (Sigma Cat. No. N-7143) was dissolved in DMSO at 2 mg/ml. Subsequent dilutions were made in BHI medium (Brain heart infusion broth, Difco #0037-07-0) immediately prior to use.
as §1
(§5) 100 μl of a drug (final concentration equivalent to 1:200 of original concentration) and 1.2 ml of sheep blood (Colorado Senun Company # CS-1112) (blood diluted in a 1:1 buffer providing a 3% concentration of blood per 20 ml medium sample) were added to 20 ml sample of media and mixed. The mixed media preparation was poured into a petri dished and allowed to solidify.
as §2, §3

In a further test the test system is Staph ATCC 14775. Briefly: Blood agar plate growth inhibition, control organism. The class given is cell-based. The following applies: Table XV, Non microaerophilic conditions. As to the method:
as §4, §1, §5
as §2, with “Control organisms were grown under microaerophilic conditions.” left out
as §3

The mark [2] stands for this setting: Tables IX-XIII, final drug concentration 0.098 μg/ml.
Setting [3] is: Tables IX-XIII, final drug concentration 0.195 μg/ml.
Setting [4] is: Tables IX-XIII, final drug concentration 0.39 μg/ml.
Setting [5] is: Tables IX-XIII, final drug concentration 0.78 μg/ml.
The mark [6] stands for this setting: Tables IX-XIII, final drug concentration 1.56 μg/ml.
Setting [7] is: Tables IX-XIII, final drug concentration 3.125 μg/ml.
Setting [8] is: Tables IX-XIII, final drug concentration 6.25 μg/ml.
The mark [9] stands for this setting: Tables IX-XIII, final drug concentration 12.5 μg/ml.
The mark [10] stands for this setting: Tables IX-XIII, final drug concentration 25 μg/ml.
The mark [11] stands for this setting: Tables IX-XIII, final drug concentration 50 μg/ml.
Setting [12] is: Tables IX-XIII, final drug concentration 100 μg/ml.
The mark [13] stands for this setting: final drug concentration 0.1 ng/ml.
Where [14] appears, read: final drug concentration 1 ng/ml.
Where [15] appears, read: final drug concentration 10 ng/ml.
Where [16] appears, read: final drug concentration 100 ng/ml.
[17] abbreviates: final drug concentration 1 μg/ml.
Where [18] appears, read: final drug concentration 10 μg/ml.

In the case of “26-O Phenylmonensin [Monensin phenyl carbamate]”, the MIC result against H. pylori ATCC 43504 (Tables IX-XIII) is recorded as “MIC = 1.56 μg/ml”. Besides, the “growth (amount of colonies present within the petri plate)” value (from here on “growth”) with H. pylori ATCC 43504 (setting [2]) is “(+++) (+++=200+ colonies)”; with H. pylori ATCC 43504 (setting [3]), “(+++) (+++=200+ colonies)”; in the test with H. pylori ATCC 43504 (setting [4]), “(++) (++=50-200 colonies)”; in the test on H. pylori ATCC 43504 (setting [5]), “(++) (++=50-200 colonies)”; in the test on H. pylori ATCC 43504 (setting [6]), “(+) small colonies (+=20-50 colonies)”; in the test with H. pylori ATCC 43504 (setting [7]), “(±) few small colonies (±=0-20 colonies)”. Also, the “growth” value in the test with H. pylori ATCC 43504 (setting [8]), with H. pylori ATCC 43504 (setting [9]), with H. pylori ATCC 43504 (setting [10]), with H. pylori ATCC 43504 (setting [11]) and in the test on H. pylori ATCC 43504 (setting [12]) was “No growth” in each case.
Turning to `CNc1ccc2oc(C[C@H]3O[C@@]4(CC[C@H]3C)O[C@H]([C@H](C)C(=O)c3ccc[nH]3)[C@H](C)C[C@H]4C)nc2c1C(=O)O` [A23187], the “growth” value in test [1] (setting [13]) is “(+++) (+++=200+ colonies)”; in test [1] (setting [14]), “(+++) (+++=200+ colonies)”; in test [1] (setting [15]), “(+++) (+++=200+ colonies)”; in test [1] (setting [16]), “(+++) (+++=200+ colonies)”; in test [1] (setting [17]), “No growth”; in test [1] (setting [18]), “No growth”.
Turning to `CC[C@@]1([C@@H]2O[C@@H]([C@H]3O[C@@](O)(CO)[C@H](C)C[C@@H]3C)C[C@@H]2C)CC[C@H]([C@]2(C)CC[C@]3(C[C@H](O)[C@@H](C)[C@@H]([C@@H](C)[C@@H](OC)[C@H](C)C(=O)OCc4ccccc4)O3)O2)O1` [Benzyl Monensin, monensin benzyl ester], the MIC result with H. pylori ATCC 43504 (Tables IX-XIII) is listed as “MIC = 25 μg/ml”. Besides, the “growth” value with H. pylori ATCC 43504 (setting [2]), with H. pylori ATCC 43504 (setting [3]), with H. pylori ATCC 43504 (setting [4]), in the test on H. pylori ATCC 43504 (setting [5]), with H. pylori ATCC 43504 (setting [6]) and in the test with H. pylori ATCC 43504 (setting [7]) was “(+++) (+++=200+ colonies)” throughout. Moreover, the “growth” value was “(+++) (+++=200+ colonies)” in the test with H. pylori ATCC 43504 (setting [8]); “(++) (++=50-200 colonies)” in the test with H. pylori ATCC 43504 (setting [9]); “(±) (±=0-20 colonies)” in the test on H. pylori ATCC 43504 (setting [10]); “(±) (±=0-20 colonies)” in the test on H. pylori ATCC 43504 (setting [11]); “(±) (±=0-20 colonies)” with H. pylori ATCC 43504 (setting [12]).
As to `CCC1(C2OC(C3OC(O)(COC(=O)NC(C)NC(=O)OCC4c5ccccc5-c5ccccc54)C(C)CC3C)CC2C)CCC(C2(C)CCC3(CC(O)C(C)C(C(C)C(OC)C(C)C(=O)O)O3)O2)O1` (centres unmarked) [Fmoc-Ala-monensin, 26-O-[1-(Fmoc-amino)ethylcarbamoyl] monensin], the MIC result in the test with H. pylori ATCC 43504 (Tables IX-XIII) is given as “MIC = 6.25 μg/ml”. The “growth” value in the test with H. pylori ATCC 43504 (setting [2]), in the test on H. pylori ATCC 43504 (setting [3]), with H. pylori ATCC 43504 (setting [4]), with H. pylori ATCC 43504 (setting [5]), in the test on H. pylori ATCC 43504 (setting [6]) and in the test with H. pylori ATCC 43504 (setting [7]) was “(+++) (+++=200+ colonies)” throughout. The “growth” value in the test with H. pylori ATCC 43504 (setting [8]) is on record as “(±) (±=0-20 colonies)”; in the test with H. pylori ATCC 43504 (setting [9]) it was “No growth”; in the test on H. pylori ATCC 43504 (setting [10]), “No growth”; in the test on H. pylori ATCC 43504 (setting [11]), “No growth”; with H. pylori ATCC 43504 (setting [12]), “No growth”.
For the compound `C[C@H](CCC(=O)O)C[C@H](C)C[C@H](C)C(=O)/C=C(\O)[C@H](C)C[C@H](C)C/C=C/[C@@H](C)[C@@H](O)[C@@H](C)[C@@H](O)C[C@@H]1CC[C@@](C)([C@H]2CC[C@@](C)([C@@H](C)O)O2)O1` [Ionomycin, ionomycin], the “growth” value in test [1] (setting [13]), in test [1] (setting [14]), in test [1] (setting [15]), in test [1] (setting [16]), in test [1] (setting [17]) and in test [1] (setting [18]) was “(+++) (+++=200+ colonies)” each time.
For the compound `CC[C@@H](C(=O)[C@@H](C)[C@@H](O)[C@H](C)CCc1ccc(C)c(O)c1C(=O)O)[C@H]1O[C@](CC)([C@H]2CC[C@](O)(CC)[C@H](C)O2)C[C@@H]1C` [Lasalocid, lasalocid], the “growth” value with Staph ATCC 14775 (setting [15]) is recorded as “(+++) (+++=200+ colonies)”; in the test with Staph ATCC 14775 (setting [16]), “(+++) (+++=200+ colonies)”; in the test on Staph ATCC 14775 (setting [17]), “(+++) (+++=200+ colonies)”; with Staph ATCC 14775 (setting [18]) it was “No growth”; in the test with H. pylori ATCC 43504 (Table VII, urease positive, final drug concentration 10 μg/ml), “(+++) (+++=200+ colonies)”; in test [1] (setting [13]), “(+++) (+++=200+ colonies)”. The “growth” value in test [1] (setting [14]), in test [1] (setting [15]), in test [1] (setting [16]), in test [1] (setting [17]) and in test [1] (setting [18]) was “(+++) (+++=200+ colonies)” throughout.
Take `CCC1(C2OC(C3OC(O)(COC(=O)Nc4cccnc4)C(C)CC3C)CC2C)CCC(C2(C)CCC3(CC(O)C(C)C(C(C)C(OC)C(C)C(=O)O)O3)O2)O1` (centres unmarked) [Monensin pyridyl carbamate, 26-O-(3-pyridylcarbamoyl) monensin]: in the test on H. pylori ATCC 43504 (Tables IX-XIII), the MIC result is listed as “MIC = 3.12 μg/ml”. The “growth” value is listed as “(+++) (+++=200+ colonies)” in the test on H. pylori ATCC 43504 (setting [2]); “(+++) (+++=200+ colonies)” in the test with H. pylori ATCC 43504 (setting [3]); “(+++) (+++=200+ colonies)” in the test on H. pylori ATCC 43504 (setting [4]); “(+++) (+++=200+ colonies)” in the test on H. pylori ATCC 43504 (setting [5]); “(++) (++=50-200 colonies)” in the test with H. pylori ATCC 43504 (setting [6]); “(±) (±=0-20 colonies)” in the test with H. pylori ATCC 43504 (setting [7]). In addition, the “growth” value in the test on H. pylori ATCC 43504 (setting [8]), with H. pylori ATCC 43504 (setting [9]), in the test on H. pylori ATCC 43504 (setting [10]), with H. pylori ATCC 43504 (setting [11]) and in the test on H. pylori ATCC 43504 (setting [12]) was “No growth” in each case.
